What is called inhibition is how much of the control response was suppressed. By pKi is commonly meant the Ki on a negative log10 scale, so that one unit is a factor of ten.

The target in test [1] is T1, Serine racemase (Homo sapiens) (UniProt Q9GZT4).
T1 sequence (whole entry): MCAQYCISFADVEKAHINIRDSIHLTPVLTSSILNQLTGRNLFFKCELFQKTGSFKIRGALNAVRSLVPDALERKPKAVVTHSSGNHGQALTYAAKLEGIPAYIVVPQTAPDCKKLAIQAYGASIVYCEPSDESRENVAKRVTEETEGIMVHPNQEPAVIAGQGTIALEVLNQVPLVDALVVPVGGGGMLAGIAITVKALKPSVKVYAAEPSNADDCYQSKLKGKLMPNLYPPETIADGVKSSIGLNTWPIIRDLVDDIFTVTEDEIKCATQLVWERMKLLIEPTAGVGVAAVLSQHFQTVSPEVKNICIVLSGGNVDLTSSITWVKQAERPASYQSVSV
The test can be described thus: Inhibition of hexa-His-tagged purified human recombinant serine racemase expressed in Escherichia coli BL21 Codonplus (DE3)-RIL cells assessed as reduction in beta-elimination of L-serine at 5 mM by spectrophotomtery.

In test [2] the target is T2, Serine racemase (Homo sapiens, UniProt Q9GZT4).
T2 sequence (Q9GZT4 whole entry): T1 sequence (whole entry)
The test can be described thus: Inhibition of hexa-His-tagged purified human recombinant serine racemase expressed in Escherichia coli BL21 Codonplus (DE3)-RIL cells assessed as reduction in beta-elimination of L-serine at by spectrophotomtery.

Test [3] concerns the target T1, Serine racemase (Homo sapiens). Description: Inhibition of hexa-His-tagged purified human recombinant serine racemase expressed in Escherichia coli BL21 Codonplus (DE3)-RIL cells assessed as reduction in beta-elimination of L-serine at 2.8 mM by spectrophotomtery.
In test [4] the target is T2, Serine racemase. The test can be described thus: Inhibition of human recombinant serine racemase expressed in Escherichia coli Rosetta 2 (DE3) cells using L-serine as substrate by horseradish peroxidase based couple assay.
Test [5] has as its target T1, Serine racemase (Homo sapiens). The note with it: 330 uM.
Description: Inhibition of hexa-His-tagged purified human recombinant serine racemase expressed in Escherichia coli BL21 Codonplus (DE3)-RIL cells assessed as reduction in beta-elimination of L-serine at 330 uM by spectrophotomtery

pKi: −log10 of the molar value.

For `O=C(O)NCS(=O)(=O)c1cccs1`, the inhibition in test [1] stood at 70%. Besides, in test [2], the pKi was 2.82.
The matching figures for `CN1C(=O)C(=CNC(CC(=O)O)C(=O)O)C(=O)N(C)C1=O` (stereo unspecified): 66% and 2.77.
As to `CC[C@H](NS(=O)(=O)c1ccc([N+](=O)[O-])cc1)C(=O)O`, the inhibition in test [1] stood at 70%. Further, the pKi in test [2] was 2.82.
On to `O=[N+]([O-])c1cccnc1SCC(O)CO` (stereo unspecified), for which the inhibition in test [3] is 0%.
For `O=C(O)CC(=O)O` [MALONIC ACID], the pKi in test [2] is 4.18; in test [4], 4.23. The compound further yielded an inhibition in test [5] of 76%.
As to `O=C(O)COCC(=O)Cc1cc(SCCO)cc([N+](=O)[O-])c1`, in test [3], the inhibition amounted to 29%. The pKi in test [2] is 2.35.
The matching figures for `O=C(O)CC(CC(=O)O)C(=O)O` [TRICARBALLYLIC ACID]: 59% and 2.89.
Turning to `O=C(O)CC1(C(=O)O)CN2CCC1CC2` (stereo unspecified), the inhibition in test [1] is 2%. The pKi in test [2] was less than 2.00.

The values above are taken from ChEMBL document CHEMBL3616404, “Expanding the chemical space of human serine racemase inhibitors” (Bioorg Med Chem Lett, 2015).
